Reference: US20100234386A1, “QUINOXALINE DERIVATIVES AS PI3 KINASE INHIBITORS” (priority 2007, published 2010)
pIC50: −log10 of the molar value.

Target: T1, PI3Kα (Homo sapiens, UniProt P42336)
T1 construct: His
Experiment: PI3K Alpha Leadseeker SPA Assay
Assay type: biochemical
Details: in at least one experimental run; read-out: IC50 value against PI3Kα
Excerpt: PI3K Alpha Leadseeker SPA Assay
SPA imaging beads are microspheres containing scintillant which emit light in the red region of the visible spectrum. As a result, these beads are ideally suited to use with a CCD imager such as the Viewlux. The Leadseeker beads used in this system are polystyrene beads that have been coupled with polyethyleneimine. When added to the assay mixture, the beads absorb both the substrate (PIP2) and product (PIP3). Adsorbed P^33-PIP3 will cause an increase in signal, measured as ADUs (analog to digital units). This protocol details the use of the PEI-PS Leadseeker beads for assays using His-p110/p85 PI3K alpha.
The compounds are serially diluted (3-fold in 100% DMSO) across the plate from column 1 to column 12 and column 13 to column 24 and leave column 6 and 18 containing only DMSO to yield 11 concentrations for each test compound.
The assay buffer contains MOPS (pH 6.5), CHAPS, and DTT. PI3K alpha and PIP2 (L-alpha-D-myo-Phosphatidylinositol 4,5-bisphosphate[PI(4,5)P2]3-O-phospho linked, D(+)-sn-1,2-di-O-octanoylglyceryl, CellSignals # 901) are mixed and incubated in the plate with compound for 30 min prior to starting the reaction with the addition of P^33-ATP and MgCl2 (reagents added using Zoom). […] PEI-PS Leadseeker beads in PBS/EDTA/CHAPS are added (by Multidrop) to quench the reaction, and the plates are allowed to incubate for at least one hour (typically overnight) before centrifugation. The signal is determined using a Viewlux detector and is then imported into curve fitting software (Activity Base) for construction of concentration response curves. The percent inhibition of activity is calculated relative to high controls (C1, 0.1 μl DMSO in column 6, rows A-P)) and low controls (C2, 5 μl of 40 uM PIP2 in buffer in column 18, rows A-P) using, 100*(1−(U1−C2)/(C1−C2)). The concentration of test compound yielding 50% inhibition is determined using the equation, y=((Vmax*x)/(K+x))+Y2, where “K” was equal to the […]. The IC50 values are converted to pIC50 values, i.e., −log IC50 in Molar concentration.

T1 sequence (P42336 whole entry, species assumed): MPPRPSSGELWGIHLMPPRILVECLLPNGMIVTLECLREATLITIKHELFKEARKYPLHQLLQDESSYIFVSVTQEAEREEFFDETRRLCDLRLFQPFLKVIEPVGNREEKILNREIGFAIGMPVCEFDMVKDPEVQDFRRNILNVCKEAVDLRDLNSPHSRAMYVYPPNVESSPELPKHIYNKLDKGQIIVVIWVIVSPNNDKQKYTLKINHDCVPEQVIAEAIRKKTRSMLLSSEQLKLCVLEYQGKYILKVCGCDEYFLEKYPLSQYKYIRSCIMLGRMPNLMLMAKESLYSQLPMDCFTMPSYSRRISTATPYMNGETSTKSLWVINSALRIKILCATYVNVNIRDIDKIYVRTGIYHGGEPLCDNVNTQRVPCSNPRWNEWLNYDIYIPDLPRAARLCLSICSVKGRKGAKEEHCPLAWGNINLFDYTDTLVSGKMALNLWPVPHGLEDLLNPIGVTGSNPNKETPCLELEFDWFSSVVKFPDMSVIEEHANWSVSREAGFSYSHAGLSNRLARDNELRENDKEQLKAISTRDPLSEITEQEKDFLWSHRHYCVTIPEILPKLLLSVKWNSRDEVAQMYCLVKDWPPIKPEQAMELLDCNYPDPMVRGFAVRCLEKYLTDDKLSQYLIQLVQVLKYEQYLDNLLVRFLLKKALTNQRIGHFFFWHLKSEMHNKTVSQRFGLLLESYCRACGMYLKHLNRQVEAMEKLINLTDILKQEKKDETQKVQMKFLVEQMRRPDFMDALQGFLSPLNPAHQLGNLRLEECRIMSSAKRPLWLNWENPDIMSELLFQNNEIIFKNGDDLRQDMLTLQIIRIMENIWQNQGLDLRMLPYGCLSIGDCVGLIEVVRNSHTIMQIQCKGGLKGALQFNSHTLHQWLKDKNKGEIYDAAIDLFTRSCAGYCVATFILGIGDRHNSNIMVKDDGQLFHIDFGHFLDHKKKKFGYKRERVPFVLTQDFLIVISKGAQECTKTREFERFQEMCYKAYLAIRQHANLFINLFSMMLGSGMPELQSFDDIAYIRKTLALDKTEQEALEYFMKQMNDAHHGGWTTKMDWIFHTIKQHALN
T1 sequence (P27986 whole entry partner, species assumed): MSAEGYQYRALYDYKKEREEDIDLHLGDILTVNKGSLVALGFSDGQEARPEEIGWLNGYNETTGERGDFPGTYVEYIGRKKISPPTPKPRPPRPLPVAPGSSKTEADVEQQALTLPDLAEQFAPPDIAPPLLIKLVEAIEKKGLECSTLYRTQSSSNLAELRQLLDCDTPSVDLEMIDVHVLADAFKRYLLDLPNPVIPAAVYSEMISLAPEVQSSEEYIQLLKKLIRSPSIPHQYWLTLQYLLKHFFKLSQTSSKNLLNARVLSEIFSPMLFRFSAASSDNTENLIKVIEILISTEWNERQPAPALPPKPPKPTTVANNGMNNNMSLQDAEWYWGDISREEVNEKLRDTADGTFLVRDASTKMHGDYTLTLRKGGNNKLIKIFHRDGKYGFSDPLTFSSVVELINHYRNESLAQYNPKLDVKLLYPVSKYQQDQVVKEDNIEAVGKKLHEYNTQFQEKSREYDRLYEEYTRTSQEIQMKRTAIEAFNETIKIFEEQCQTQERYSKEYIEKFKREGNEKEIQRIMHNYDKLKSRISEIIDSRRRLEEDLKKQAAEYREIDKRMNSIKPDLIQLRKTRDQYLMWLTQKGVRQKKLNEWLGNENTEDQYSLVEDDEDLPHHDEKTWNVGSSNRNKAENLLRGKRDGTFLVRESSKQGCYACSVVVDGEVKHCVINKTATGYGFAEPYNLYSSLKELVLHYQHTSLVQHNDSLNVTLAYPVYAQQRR

Row | Structure (SMILES) | pIC50
1 | c1cc2ncc(N3CCOCC3)nc2cc1-c1cnc2[nH]ncc2c1 [Example 1, 2-(4-morpholinyl)-7-(1H-pyrazolo[3,4-b]pyridin-5-yl)quinoxaline] | 8.30
2 | CCNc1cnc2ccc(-c3cnc(N)c(S(=O)(=O)N(C)C)c3)cc2n1 [Example 19] | 8.10

More lines, in order of rising pIC50, values ahead:

Row | pIC50 | Structure (SMILES)
3 | 6.70 | NS(=O)(=O)c1cncc(-c2ccc3ncc(-c4ccncc4)nc3c2)c1 [Example 70]
4 | 7.00 | COc1ccc(-c2ccc3ncc(N4CCOCC4)nc3c2)cn1 [Example 2]
5 | 7.30 | c1cc2cc(-c3ccc4ncc(N5CCOCC5)nc4c3)cnc2[nH]1 [Example 4]
